Entries after “also recorded” stand apart in the source; their conditions may differ.
Key:
Type in all cases: cell-based, human
[1] = tested on: uPAR-positive A172 cells; test: Anti-DNP GDT cell mediated killing of A172 cells; conditions: Anti-DNP CD28 CAR GDT cells; E:T 8:1; 1, 10, 100 nM; 3 days
Procedure: Engineering GDT cells with Anti-DNP DAP12-SAR or Anti-DNP CD28 CAR: PBMC were seeded at 4E6 cells per well in a 24 well G-Rex plate in the presence of 1 ug/ml zoledronate and 1.5 ng/ml human IL2. Three days later, the cells were incubated overnight in a 24 well non tissue culture treated plate that was pre coated with retronectin and retrovirus supernatant containing viruses encoding the Anti-DNP DAP12-SAR or Anti-DNP CD28 CAR. The cells were then transferred back to the G-Rex plate and cultured for a further 11 days at which point, the cell product was collected, CD4/CD8 T cells were removed by magnetic selection and the purified engineered GDT cells were cryopreserved.
Measuring T cell mediated killing of A172 cells: A172 cells, which are urokinase type plasminogen activator receptor (uPAR) positive, were engineered with eGFP lentivirus to produce green fluorescent protein expressing cells. […] Also added to the wells were uPAR-CIR or uPAR-(N)CIR at a range of concentrations from 1 nM, 10 nM and 100 nM. […] Samples were run in triplicate. The green image mean of the wells at each time point was calculated using the Incucyte cell by cell analysis software and plotted to yield the following figures. […] For the analysis of killing by Anti-DNP CD28 CAR GDT cells, the area under the growth curve (AUC) was analyzed using PRISM Graphpad and to calculate the % cytotoxicity.

[2] = tested on: 293-WT cells (do not express PSMA); test: CD69 and Nur77 expression of ABT cells with 293-WT cells; conditions: engineered ABT cells, 100 nM
From the text: (§1) Cells were stained for surface marker expression via Pacific Blue-conjugated mouse anti-human CD4, and AlexaFluor700-conjugated mouse anti-human CD8a, VioBright FITC-conjugated mouse anti-human NGFR, and anti-huCD69, fixed and permeabilized in Permiabilization concentrate diluted in permeabilization diluent, and stained intracellularly with PE-conjugated mouse anti-mouse Nur77.

[3] = tested on: PSMA-positive LNCaP cells; test: Anti-DNP TAC ABT cell mediated killing of LNCaP cells (Incucyte)
Procedure: Measuring T cell mediated killing of LNCaP cells: LNCaP prostate cancer cells, which are prostate specific membrane antigen (PSMA) positive, were engineered with Nuclight Red lentivirus to produce cells with nuclear localized red fluorescence to allow for ease of imaging in these experiments. […] The 3 components were co-cultured for 3 days with 4 images per well taken every 6 hours. Samples were run in triplicate. The number of LnCap cells per well at each time point was calculated using the Incucyte cell by cell analysis software and plotted. The area under the growth curve was used as a metric for tumor cell growth for this figure. The larger the area, the greater the tumor cell growth that occurred over the 3 days. The area under the curve for the LnCap control and each condition were used to calculate the % cytotoxicity.

[4] = tested on: PSMA transduced HEK-293 cells; test: IFN-gamma / TNF-alpha production of Anti-DNP TAC ABT cells following stimulation with HEK-293 PSMA cells; conditions: Anti-DNP TAC ABT cells prelabelled 6 hours; co-culture 4 hours
Procedure: The cells were co-cultured together for 4 hours at 37 degrees. Golgi plug was added prior to the co-incubation to prevent cytokine secretion. To stop the activation 20 mM EDTA was added and incubated for 15 minutes. The cells were spun down, media was aspirated, and the cells were stored in 200 μL of cRPMI overnight at 4 degrees. The next day, the cells were surface stained with anti-CD4 Pacific Blue, anti-CD8 Alexa Fluor 700, and anti-NGFR Viobright FITC. The cells were then fixed and permeabilized using a fix/perm buffer solution. The cells were then intracellularly stained with anti-CD3 BV605, anti-TNF-alpha PE-CY7, and anti-IFN-gamma APC. Cells were then run on the Beckman Coulter Cytoflex flow cytometer. The percent of cells positive for TNF-alpha and IFN-gamma, as well as cells positive for both were recorded in the table for the separate CD4 and CD8 T-cell populations.

[5] = tested on: HEK293-WT cells; test: Cytokine production of engineered ABT cells, controls with 293-WT cells or no tumor cells; conditions: Media+CIR; 293-WT+CIR
Procedure: (§2) Measuring cytokine production following stimulation with HEK-293 cells: In a 96 well round bottom plate, 4E5 HEK293-PSMA cells (PSMA expressing) or HEK293-WT cells were incubated with 4E5 Anti-DNP TAC ABT cells, Anti-DNP DAP12 SAR ABT cells, or Anti-CD28 CAR ABT-cells. […] To stop the activation 20 mM EDTA was added and incubated for 15 minutes. Cells were stained for surface expression of CD4 and CD8, fixed and permeabilized in Cytofix/Cytoperm buffer, and stained with APC-conjugated mouse anti-human interferon-gamma, and FITC-conjugated mouse anti-human tumor necrosis factor-alpha. Cells were then run on the Beckman Coulter Cytoflex flow cytometer. The percent of cells positive for tumor necrosis factor-alpha and interferon-gamma for CD4 and CD8 T-cell populations were graphed separately showing the same overall trends.

[6] = tested on: PSMA-positive LNCaP cells; test: Anti-DNP GDT cell mediated killing of LNCaP cells (Incucyte)
Procedure: Measuring T cell mediated killing of LNCaP cells: LNCaP prostate cancer cells, which are prostate specific membrane antigen (PSMA) positive, were engineered with Nuclight Red lentivirus to produce cells with nuclear localized red fluorescence to allow for ease of imaging in these experiments. […] Samples were run in triplicate. The number of LNCaP cells per well at each time point was calculated using the Incucyte cell by cell analysis software and plotted. The area under the growth curve was used as a metric for tumor cell growth for this figure. The larger the area, the greater the tumor cell growth that occurred over the 3 days. The area under the curve for the LNCaP control and each condition were used to calculate the % cytotoxicity.

[7] = tested on: PSMA transduced HEK-293 cells; test: CD69 upregulation of DNP-TAC T cells following stimulation with HEK-293 PSMA cells; conditions: DNP-TAC T cells pre labelled 6 hours; co-culture overnight
Procedure: The cells were co-cultured together overnight at 37 degrees. To stop the activation, 20 mM EDTA was added and incubated for 15 minutes. The cells were spun down, media was aspirated, and the cells were stored in 200 μL of cRPMI at 4 degrees prior to staining. The cells were stained with Live-Dead Zombie Aqua, anti-CD3 BV605, anti-CD4 Pacific Blue, anti-CD8 Alexa Fluor 700, anti-NGFR Viobright FITC, and anti-CD69 BV650. Upon staining the cells were run on the Beckman Coulter Cytoflex flow cytometer and analyzed for CD69 expression.

[8] = tested on: 293-PSMA cells; test: CD69 and Nur77 expression of activated ABT cells with 293-PSMA cells
From the text: as §1

[9] = tested on: HEK293-PSMA cells (PSMA expressing); test: Cytokine production of engineered ABT cells following stimulation with HEK293-PSMA cells
Procedure: as §2

[10] = tested on: 293-PSMA cells; test: Proliferation of adapter functionalized engineered ABT cells (CellTrace Violet)
Procedure: Each engineered T cell was also cultured in media alone as a control to compare to. All proliferation assay samples were incubated for 3 days at 37° C. and 5% CO2. Cells were then stained with Live/Dead Fixable Near-IR stain, PerCP-Cy5.5-conjugated mouse anti-human CD8a, Alexa Fluor 700-conjugated mouse anti-human CD4, VioBright FITC-conjugated mouse anti-human NGFR, and BV605-conjugated mouse anti-human CD3. Flow cytometry data were acquired.

CC(C)C[C@H](NC(=O)[C@H](Cc1ccc(O)cc1)NC(=O)[C@@H](CCCNC(=N)N)NC(=O)[C@@H](CO)NC(=O)[C@H](Cc1ccccc1)NC(=O)[C@H](CC1CCCCC1)NC(=O)[C@H](CC(=O)O)NC(=O)CNC(=O)[C@H](CO)NC(=O)CNC(=O)CNC(=O)[C@H](CCCCNc1ccc([N+](=O)[O-])cc1[N+](=O)[O-])NC(=O)c1cccc(S(=O)(=O)F)c1)C(=O)N[C@@H](Cc1c[nH]c2ccccc12)C(=O)N[C@@H](CO)C(=O)O [uPAR-CIR, DNP-SuFEx-uPAR binding peptide]
cytotoxicity towards A172 cells [1]: exhibited cytotoxicity; also recorded: can be redirected

O=C(O)CC[C@H](NC(=O)N[C@@H](CCCCNC(=O)NCCOCCOCCOCCOCCOCCOCCOCCOC(=O)n1cnc(CCNC(=O)CNc2ccc([N+](=O)[O-])cc2[N+](=O)[O-])c1)C(=O)O)C(=O)O [PSMA-CIR, DNP-Acyl Imidazole-Glutamate Urea Lysine]
Nur77 and CD69 (off-target activation) [2]: no increase of Nur77 or CD69 above the media-only control
killing of LNCaP cells ([3]; E:T 8:1, 15.63 nM to 125 nM, 3 days): could trigger killing; also recorded: promoted killing of the LNCaP cells at low nM concentrations
concentration effective at engaging tumor killing ([3]; E:T 8:1, 3 days): ≤ 15 nM
production of IFN-gamma and TNF-alpha [4]: production of IFN-gamma and TNF-alpha
cytokine production in controls [5]: the controls showed no cytokine production
adapter concentration at which tumor killing is observed ([6]; Anti-DNP CD28 CAR GDT cells): ≤ 15 nM
killing of LNCaP cells ([6]; Anti-DNP CD28 CAR GDT cells, 125 nM adapter): could direct T cell cytotoxicity; also recorded: displayed tumor growth control
killing of LNCaP cells ([6]; Anti-DNP DAP12-SAR GDT cells, 125 nM adapter): could trigger killing; also recorded: only suppressed tumor growth in the presence of the PSMA-CIR
adapter concentration at which tumor killing is observed ([6]; Anti-DNP DAP12 SAR GDT cells): ≤ 15 nM
killing of LNCaP cells after preincubation and wash ([6]; Anti-DNP DAP12 SAR and Anti-DNP CD28 CAR GDT cells, 1 uM adapter for 6 hours, washed, then co-culture): retained the ability to kill LNCaP cells
killing of LNCaP cells ([6]; CD28 CAR GDT cells, 10 nM adapter): robust LNCaP killing
LNCaP killing over a range of concentrations ([6]; both Anti-DNP DAP12-SAR GDT cells and Anti-DNP CD28 CAR GDT cells, 15.6 nM-250 nM): sustained across all concentrations
T cell activation based on upregulation of CD69 [7]: PSMA-specific activation; also recorded: capable of stimulating Anti-DNP TAC T cell activation
T cell activation (Nur77, CD69), compared to PSMA-(N)CIR ([8]; Anti-DNP DAP12-SAR T cells, 10 nM and 1 nM): greater activation at both concentrations
T cell activation (Nur77, CD69) ([8]; Anti-DNP TAC-T cells, 10 nM and 1 nM): could elicit T cell activation
T cell activation (Nur77, CD69), compared to PSMA-(N)CIR ([8]; Anti-DNP-CD28 CAR T cells): much greater activation
upregulation of Nur77 and CD69 ([8]; TAC, DAP12-SAR and CD28-CAR ABT cells, 293-PSMA, 100 nM, 4 hours): Upregulation of Nur77 and CD69; also recorded: only occurred in the presence of CIR and PSMA-expressing target cells
upregulation of Nur77 and CD69, CIR compared to (N)CIR ([8]; all engineered ABT cells, 293-PSMA, 10 nM and 1 nM): stronger with CIR compared to (N)CIR; also recorded: increased activation and downstream signal strength
cytokine production, compared to PSMA-(N)CIR ([9]; CD28-CAR T cells, 1 nM, 10 nM): increased cytokine production at lower concentrations
cytokine production ([9]; CD28-CAR T cells, highest concentration (100 nM)): equivalent levels of cytokine production
cytokine production ([9]; DAP12-SAR T cells, 1, 10, 100 nM): strongest activation was mediated by the CIR
cytokine production ([9]; TAC T cells, 1, 10, 100 nM): only activated by the CIR
production of interferon-gamma and tumor necrosis factor-alpha ([9]; all three engineered receptors (TAC, DAP12-SAR, CD28-CAR) ABT cells, 1, 10, 100 nM): target specific production of interferon-gamma and tumor necrosis factor-alpha; also recorded: Increased cytokine production
T cell proliferation, PSMA-CIR versus PSMA-(N)CIR ([10]; Anti-DNP CD28 CAR T cells): performed similarly
T cell proliferation (percent divided) ([10]; Anti-DNP DAP12 SAR T cells, 1 nM, 10 nM, or 100 nM): robust proliferation
T cell proliferation (percent divided) ([10]; Anti-DNP TAC T cells, 1, 10, 100 nM, 3 days): only entered proliferation when co-cultured with 293-PSMA cells and 100 nM PSMA-CIR

Source: US20260248852A1, “SYNTHETIC ANTIGEN RECEPTORS FOR COVALENT IMMUNE RECRUITERS AND METHODS AND USES THEREOF” (McMaster University, priority 2022, published 2026)
